In assay [1] the test system is B16 mouse melanoma cells. In words: cell viability in the B16 cell-based assay (Viability, B16 IC50). As to conditions: Mus musculus. The method in brief: (§1)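 Both lines undergo the phenotypic GM3 assay, and viability is recorded from that same cell-based run.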
Assay [2] deals with T1, glucosylceramide synthase (Homo sapiens, UniProt Q16739).
T1 construct: Microsomes were isolated from A375 human melanoma cells; endogenous in cells; host or cells: A375 human melanoma cells (microsomal fraction, 100,000 g pellet)
T1 sequence (Q16739 1-394): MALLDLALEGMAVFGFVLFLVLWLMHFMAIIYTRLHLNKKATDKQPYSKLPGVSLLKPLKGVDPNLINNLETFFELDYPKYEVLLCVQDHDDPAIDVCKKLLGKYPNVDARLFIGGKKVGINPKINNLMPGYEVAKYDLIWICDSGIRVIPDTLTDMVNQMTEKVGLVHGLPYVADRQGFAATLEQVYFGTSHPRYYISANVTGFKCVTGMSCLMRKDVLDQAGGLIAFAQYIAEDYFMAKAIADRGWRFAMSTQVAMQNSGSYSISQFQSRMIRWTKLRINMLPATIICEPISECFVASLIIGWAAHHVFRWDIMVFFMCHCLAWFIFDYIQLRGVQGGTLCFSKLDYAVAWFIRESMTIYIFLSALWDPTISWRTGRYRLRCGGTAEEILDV
In words: microsomal assay measuring conversion of ceramide to glucosylceramide by HPLC (GCS IC50). The assay is classed as biochemical. As to conditions: concentration causing 50% inhibition of glucosylceramide synthase activity. In a few lines: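 Microsomal preparation assayed for glucosylceramide synthase by direct HPLC measurement of ceramide conversion to glucosylceramide. GCS IC50 is the compound concentration giving 50% inhibition of enzyme activity.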

Assay [3] concerns GM3 expression on the cell surface, B16 mouse melanoma cells. The assay can be described thus: cell based phenotypic assay, cell surface GM3 by antibody mediated immunofluorescence, B16 (GM3 B16 IC50). As to conditions: Mus musculus, 50% inhibition of GM3 expression on the cell surface. In a few lines:
(§2)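 B16 mouse and C32 human melanoma cells; cell-surface GM3 measured by antibody-mediated immunofluorescence, giving IC50.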

The test system of assay [4] is C32 human melanoma cells. In words: cell viability in the C32 cell-based assay (Viability, C32 IC50). As to conditions: Homo sapiens, concentration causing 50% cell death, values greater than 10 represent a lack of cell death. The method in brief: as §1
In assay [5] the test system is GM3 expression on the cell surface, C32 human melanoma cells. The assay can be described thus: cell based phenotypic assay, cell surface GM3 by antibody mediated immunofluorescence, C32 (GM3 C32 IC50). The following applies: Homo sapiens, 50% inhibition of GM3 expression on the cell surface. The method in brief:
as §2

The mark [6] stands for this setting: B16, B16 cells, concentration causing 50% cell death, values greater than 10 represent a lack of cell death, read-out: Viability, B16 IC50.
Setting [7] is: B16 mouse melanoma cells, read-out: GM3 B16 IC50.
The mark [8] stands for this setting: C32, C32 cells, read-out: Viability, C32 IC50.
[9] abbreviates: C32 human melanoma cells, read-out: GM3 C32 IC50.
Setting [10] is: B16, read-out: Viability, B16 IC50.
Setting [11] is: read-out: GM3 B16 IC50, B16 mouse melanoma cells.
The mark [12] stands for this setting: C32, read-out: Viability, C32 IC50, C32 cells.
[13] abbreviates: read-out: GM3 C32 IC50, C32 human melanoma cells.

Here are results for nine compounds from patent US12060349B2, “Glucosylceramide synthase inhibitors” (Genzyme Corporation, priority 2012, dated 2024).

Read-outs that look alike come from different tables or passages of the source.

As usually defined, the IC50 is the concentration that inhibits the measured activity by half. Take `CC(C)(NC(=O)N1CCN2CCC1CC2)c1ccc(-c2ccc(CN3CCOCC3)cc2)cc1` [Example 230, N-(2-(4′-(Morpholinomethyl)-[1,1′-biphenyl]-4-yl)propan-2-yl)-1,4-diazabicyclo[3.2.2]nonane-4-carboxamide]: the IC50 in assay [1] (setting [6]) is ≥ 10000 nM; in assay [2] it was 2280 nM; in assay [3] (setting [7]) it was 1790 nM; in assay [4] (setting [8]), ≥ 10000 nM; in assay [5] (setting [9]), 417 nM.
Take `CC(C)(NC(=O)OC1CN2CCC1CC2)c1ccc(-c2ccc(N3CCOCC3)cc2)cc1` (stereo not drawn) [Example 231, Quinuclidin-3-yl (2-(4′-morpholino-[1,1′-biphenyl]-4-yl)propan-2-yl)carbamate]: the IC50 in assay [1] (setting [10]) amounted to 2000 nM; in assay [2], 71 nM; in assay [3] (setting [11]), 230 nM; in assay [4] (setting [12]) it was 2000 nM; in assay [5] (setting [13]), 15 nM.
As to `CC(C)(NC(=O)NC1(C)CN2CCC1CC2)c1ccc(-c2ccc(N3CCOCC3)cc2)cc1` (stereo not drawn) [Example 232, 1-(3-Methylquinuclidin-3-yl)-3-(2-(4′-morpholino-[1,1′-biphenyl]-4-yl)propan-2-yl)urea], the IC50 in assay [1] (setting [6]) came out at 1000 nM; in assay [2], 30.9 nM; in assay [3] (setting [7]), 64.2 nM; in assay [4] (setting [8]) it was 1000 nM; in assay [5] (setting [9]) it was 7.17 nM.
As to `CC(C)(NC(=O)NC1(C)CCN2CCC1CC2)c1ccc(-c2ccc(N3CCOCC3)cc2)cc1` (stereo not drawn) [Example 233, 1-(4-Methyl-1-azabicyclo[3.2.2]nonan-4-yl)-3-(2-(4′-morpholino-[1,1′-biphenyl]-4-yl)propan-2-yl)urea], the IC50 was 1000 nM in assay [1] (setting [6]); 5.68 nM in assay [2]; 5.51 nM in assay [3] (setting [7]); 1000 nM in assay [4] (setting [8]); 0.726 nM in assay [5] (setting [9]).
With `CCC1(NC(=O)NC(C)(C)c2ccc(-c3ccc(N4CCOCC4)cc3)cc2)CN2CCC1CC2` (stereo not drawn) [Example 234, 1-(3-Ethylquinuclidin-3-yl)-3-(2-(4′-morpholino-[1,1′-biphenyl]-4-yl)propan-2-yl)urea], the IC50 in assay [1] (setting [6]) was found to be 1000 nM; in assay [2], 14.6 nM; in assay [3] (setting [7]) it was 32.6 nM; in assay [4] (setting [8]), 1000 nM; in assay [5] (setting [9]), 1.81 nM.
Regarding `CC(C)(NC(=O)OC1CN2CCC1CC2)c1ccc(-c2ccc(S(C)(=O)=O)cc2)cc1` (stereo not drawn) [Example 235, Quinuclidin-3-yl (2-(4′-(methylsulfonyl)-[1,1′-biphenyl]-4-yl)propan-2-yl)carbamate], the IC50 in assay [1] (setting [10]) is ≥ 10000 nM; in assay [2], 111 nM; in assay [3] (setting [11]), 118 nM; in assay [4] (setting [12]), ≥ 10000 nM; in assay [5] (setting [13]), 19.9 nM.
Consider `CCC1(NC(=O)NC(C)(C)c2ccc(-c3ccc(S(C)(=O)=O)cc3)cc2)CN2CCC1CC2` (stereo not drawn) [Example 236, 1-(3-Ethylquinuclidin-3-yl)-3-(2-(4′-(methylsulfonyl)-[1,1′-biphenyl]-4-yl)propan-2-yl)urea], for which the IC50 in assay [1] (setting [6]) was ≥ 10000 nM; in assay [2] it was 53.8 nM; in assay [3] (setting [7]), 74.4 nM; in assay [4] (setting [8]), ≥ 10000 nM; in assay [5] (setting [9]) it was 9.46 nM.
For the compound `CCCC1(NC(=O)NC(C)(C)c2ccc(-c3ccc(S(C)(=O)=O)cc3)cc2)CN2CCC1CC2` (stereo not drawn) [Example 237, 1-(2-(4′-(Methylsulfonyl)-[1,1′-biphenyl]-4-yl)propan-2-yl)-3-(3-propylquinuclidin-3-yl)urea], the IC50 in assay [1] (setting [6]) is ≥ 10000 nM; in assay [2], 35.4 nM; in assay [3] (setting [7]), 32.9 nM; in assay [4] (setting [8]), ≥ 10000 nM; in assay [5] (setting [9]), 6.71 nM.
For `CC(C)(NC(=O)OC1CN2CCC1CC2)c1ccc(-c2ccc(S(=O)(=O)CC3CC3)cc2)cc1` (stereo not drawn) [Example 238, Quinuclidin-3-yl (2-(4′-((cyclopropylmethyl)sulfonyl)-[1,1′-biphenyl]-4-yl)propan-2-yl)carbamate], the IC50 in assay [1] (setting [10]) is ≥ 10000 nM; in assay [2] it was 15.4 nM; in assay [3] (setting [11]) it was 50.1 nM; in assay [4] (setting [12]), 1000 nM; in assay [5] (setting [13]), 4.45 nM.
